This passage reports IC50 results from patent US20260176265A1 (Cancer Research Technology Limited, priority 2022, published 2026).

The target in experiment [1] is CtermHisTag-mEGFR Triple Mutant - C797S, L858R, T790M (Homo sapiens, UniProt P00533, C797S/L858R/T790M). The experiment in a line: TR-FRET probe displacement assay, EGFR triple mutant. Type of experiment: binding. The following applies: T790M 1.25 nM, probe 100 nM, 30 mins room temperature. An outline of the steps:
(§1)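 Probe displacement from His-tagged wild-type or triple-mutant EGFR measured by TR-FRET (excitation 337 nm, emission 490/520 nm). Compounds spanned final concentrations from 3 to 100000 nM over ten points; technical replicates, repeated twice biologically.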
A general note: In TR-FRET formats the signal depends on donor and acceptor labels being close together.

The target in experiment [2] is CtermHisTag-mEGFR Wild type (Homo sapiens, UniProt P00533). As to the kind of experiment: TR-FRET probe displacement assay, EGFR wild type. Type of experiment: binding. To be noted: EGFR wild type 1.25 nM, probe 100 nM, 30 mins room temperature. An outline of the steps: as §1
Experiment [3] addresses T1, Phospho-EGFR (Tyr1068) in H1975 cells (Homo sapiens, UniProt P00533, L858R/T790M).
T1 construct: host or cells: H1975
As to the kind of experiment: HTRF pEGFR/total EGFR assay in H1975 cells. The format is cell-based. The following applies: compound 3 hours, ratio pEGFR/total EGFR. An outline of the steps:
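H1975 cells (EGFR L858R/T790M) adhered 24 h, then compound-treated for 3 h in duplicate, 0.1% DMSO final. Lysates read by HTRF at 665/620 nm for phospho-Tyr1068 and total EGFR. Value is pEGFR/total EGFR ratio as % of 0 uM control.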

Experiment [4] deals with T2, Phospho-EGFR (Tyr1068) in H1975 C797S cells (Homo sapiens, UniProt P00533, C797S/L858R/T790M).
T2 construct: endogenous in cells; host or cells: H1975 C797S (CRISPR-edited in house from ATCC CRL-5908)
The experiment in a line: HTRF pEGFR/total EGFR assay in H1975 C797S cells. The format is cell-based. To be noted: H1975 C797S cells (CRISPR), compound 3 hours, ratio pEGFR/total EGFR. An outline of the steps:
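Phospho-EGFR (Tyr1068) and total EGFR were measured by HTRF (665 and 620 nm) in lysates of NGS-validated H1975 EGFR C797S cells. Cells were dosed for 3 h in duplicate, 0.1% DMSO final. Read-out is the pEGFR/total EGFR ratio relative to the 0 uM control, as percent.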

In experiment [5] the target is T3, Phospho-EGFR (Tyr1068) in A431 cells (Homo sapiens, UniProt P00533).
T3 construct: endogenous in cells; host or cells: A431
As to the kind of experiment: HTRF pEGFR/total EGFR assay in A431 cells (EGF stimulated). Type of experiment: cell-based. The following applies: compound 2.5 hours then 100 ng/ml EGF 30 mins, ratio pEGFR/total EGFR. An outline of the steps:
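HTRF readout (665 and 620 nm) of Tyr1068-phosphorylated versus total EGFR in lysed A431 cells, expressed as ratio relative to 0uM control (%). Compound exposure 2.5 h in duplicate at 0.1% DMSO, with 100 ng/ml EGF added for 30 min.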

CtermHisTag-mEGFR Wild type, sequence (P00533 25-1210): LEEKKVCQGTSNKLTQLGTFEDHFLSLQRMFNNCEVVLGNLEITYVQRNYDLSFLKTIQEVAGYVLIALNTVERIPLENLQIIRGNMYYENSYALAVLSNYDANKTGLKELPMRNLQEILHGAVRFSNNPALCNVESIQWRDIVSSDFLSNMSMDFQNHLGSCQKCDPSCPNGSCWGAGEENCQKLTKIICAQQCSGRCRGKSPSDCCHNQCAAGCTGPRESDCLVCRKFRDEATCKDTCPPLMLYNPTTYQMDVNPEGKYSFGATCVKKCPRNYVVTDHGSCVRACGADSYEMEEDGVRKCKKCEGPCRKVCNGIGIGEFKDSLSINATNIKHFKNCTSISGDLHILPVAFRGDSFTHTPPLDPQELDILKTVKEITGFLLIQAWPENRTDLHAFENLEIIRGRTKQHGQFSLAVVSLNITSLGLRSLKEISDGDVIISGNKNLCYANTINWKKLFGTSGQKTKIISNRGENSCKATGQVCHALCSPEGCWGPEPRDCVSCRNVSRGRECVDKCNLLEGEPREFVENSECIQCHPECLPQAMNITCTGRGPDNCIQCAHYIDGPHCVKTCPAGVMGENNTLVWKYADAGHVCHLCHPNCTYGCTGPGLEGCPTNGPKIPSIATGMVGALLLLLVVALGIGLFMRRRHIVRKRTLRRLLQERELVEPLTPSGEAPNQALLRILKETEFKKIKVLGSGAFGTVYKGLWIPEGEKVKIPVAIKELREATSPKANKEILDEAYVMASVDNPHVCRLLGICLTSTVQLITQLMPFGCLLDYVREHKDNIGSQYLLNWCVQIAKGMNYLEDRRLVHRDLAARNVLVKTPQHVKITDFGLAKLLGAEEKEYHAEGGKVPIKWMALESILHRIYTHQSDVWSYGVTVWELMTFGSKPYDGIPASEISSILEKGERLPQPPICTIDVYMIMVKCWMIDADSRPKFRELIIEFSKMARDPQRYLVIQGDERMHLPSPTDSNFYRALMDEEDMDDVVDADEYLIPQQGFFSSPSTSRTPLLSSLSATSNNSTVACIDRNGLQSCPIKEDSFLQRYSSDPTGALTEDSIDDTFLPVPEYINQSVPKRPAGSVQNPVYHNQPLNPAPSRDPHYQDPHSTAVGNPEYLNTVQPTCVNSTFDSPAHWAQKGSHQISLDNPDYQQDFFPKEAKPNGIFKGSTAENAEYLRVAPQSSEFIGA
T3 sequence (P00533 25-1210): as above
T1 sequence (P00533 25-1210 T790M/L858R): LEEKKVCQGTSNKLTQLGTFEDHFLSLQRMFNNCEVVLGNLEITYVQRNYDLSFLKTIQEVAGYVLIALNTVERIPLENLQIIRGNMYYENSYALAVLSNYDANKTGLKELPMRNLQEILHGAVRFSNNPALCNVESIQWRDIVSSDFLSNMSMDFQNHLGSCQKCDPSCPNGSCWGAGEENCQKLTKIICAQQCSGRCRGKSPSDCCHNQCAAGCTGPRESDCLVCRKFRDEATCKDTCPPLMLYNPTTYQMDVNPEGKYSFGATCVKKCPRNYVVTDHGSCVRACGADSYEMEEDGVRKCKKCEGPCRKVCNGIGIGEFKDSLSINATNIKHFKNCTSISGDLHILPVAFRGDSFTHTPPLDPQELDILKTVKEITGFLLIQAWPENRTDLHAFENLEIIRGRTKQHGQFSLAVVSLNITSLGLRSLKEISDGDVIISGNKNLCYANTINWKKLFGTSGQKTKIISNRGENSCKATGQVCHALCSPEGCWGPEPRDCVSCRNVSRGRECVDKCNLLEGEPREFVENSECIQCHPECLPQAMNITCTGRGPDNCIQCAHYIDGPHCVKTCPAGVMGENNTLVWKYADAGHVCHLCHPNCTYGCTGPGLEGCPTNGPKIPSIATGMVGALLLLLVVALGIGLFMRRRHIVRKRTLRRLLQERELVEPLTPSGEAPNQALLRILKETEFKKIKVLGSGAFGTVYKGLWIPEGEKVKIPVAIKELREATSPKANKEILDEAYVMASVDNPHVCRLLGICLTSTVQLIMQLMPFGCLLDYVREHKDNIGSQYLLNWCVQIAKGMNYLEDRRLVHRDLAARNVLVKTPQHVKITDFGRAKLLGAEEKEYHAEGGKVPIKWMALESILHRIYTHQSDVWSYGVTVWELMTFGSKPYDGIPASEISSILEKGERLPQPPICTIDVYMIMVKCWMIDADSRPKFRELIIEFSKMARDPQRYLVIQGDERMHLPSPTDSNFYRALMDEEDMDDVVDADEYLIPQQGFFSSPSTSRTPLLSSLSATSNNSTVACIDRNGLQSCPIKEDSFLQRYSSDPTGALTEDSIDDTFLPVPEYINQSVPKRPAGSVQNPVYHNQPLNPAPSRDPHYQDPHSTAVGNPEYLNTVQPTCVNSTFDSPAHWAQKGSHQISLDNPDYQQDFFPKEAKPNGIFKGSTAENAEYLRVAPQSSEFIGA
CtermHisTag-mEGFR Triple Mutant - C797S, L858R, T790M, sequence (P00533 25-1210 T790M/C797S/L858R): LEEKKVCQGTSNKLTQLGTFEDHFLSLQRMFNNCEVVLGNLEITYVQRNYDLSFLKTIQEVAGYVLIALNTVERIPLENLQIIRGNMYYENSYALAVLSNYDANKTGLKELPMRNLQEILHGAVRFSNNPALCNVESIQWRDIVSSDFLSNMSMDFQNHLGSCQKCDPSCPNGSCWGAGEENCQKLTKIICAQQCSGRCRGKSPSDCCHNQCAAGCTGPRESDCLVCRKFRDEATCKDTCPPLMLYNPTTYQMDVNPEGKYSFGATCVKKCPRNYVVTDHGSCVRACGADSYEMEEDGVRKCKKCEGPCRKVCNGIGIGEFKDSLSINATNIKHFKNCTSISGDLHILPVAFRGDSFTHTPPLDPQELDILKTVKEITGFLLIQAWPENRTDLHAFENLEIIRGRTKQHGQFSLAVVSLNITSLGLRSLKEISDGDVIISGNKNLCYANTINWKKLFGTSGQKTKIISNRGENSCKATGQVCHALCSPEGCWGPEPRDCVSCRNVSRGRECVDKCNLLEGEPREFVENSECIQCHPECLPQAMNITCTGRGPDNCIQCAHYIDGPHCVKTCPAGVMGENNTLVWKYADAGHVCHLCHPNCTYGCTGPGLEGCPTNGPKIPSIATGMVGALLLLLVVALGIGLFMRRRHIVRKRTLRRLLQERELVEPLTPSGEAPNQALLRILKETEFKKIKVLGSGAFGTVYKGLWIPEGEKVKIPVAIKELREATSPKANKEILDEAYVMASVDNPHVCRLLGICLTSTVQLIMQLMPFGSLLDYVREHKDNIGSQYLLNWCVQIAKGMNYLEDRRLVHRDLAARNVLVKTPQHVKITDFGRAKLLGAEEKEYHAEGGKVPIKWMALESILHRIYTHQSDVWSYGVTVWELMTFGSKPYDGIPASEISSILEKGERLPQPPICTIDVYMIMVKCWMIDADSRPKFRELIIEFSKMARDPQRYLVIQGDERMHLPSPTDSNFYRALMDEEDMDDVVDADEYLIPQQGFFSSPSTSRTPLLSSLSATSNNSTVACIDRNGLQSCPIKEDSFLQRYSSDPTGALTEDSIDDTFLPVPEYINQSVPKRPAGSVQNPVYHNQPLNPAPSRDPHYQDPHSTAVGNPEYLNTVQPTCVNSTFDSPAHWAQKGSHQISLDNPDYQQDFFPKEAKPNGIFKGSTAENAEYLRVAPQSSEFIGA

The IC50 is the point on the concentration scale where inhibition reaches its midpoint. As to `C#Cc1cc(N(C)C(=O)N(C)C2CCCC2)nc2nc(Nc3ccc(N4CCN(C)CC4)cc3)ncc12` [Example 123, 3-Cyclopentyl-1-(5-ethynyl-2-{[4-(4-methylpiperazin-1-yl)phenyl]amino}pyrido[2,3-d]pyrimidin-7-yl)-1,3-dimethylurea], the IC50 was 1000 to 50000 nM in experiment [1]; over 10 µM in experiment [2]; over 3000 nM in experiment [3]; over 3000 nM in experiment [4]; over 3 µM in experiment [5].
On to `C#Cc1cc(N2C(=O)NCC2C2CCCC2)nc2nc(Nc3ccc(N4CCN(C)CC4)cc3)ncc12` (stereo not shown) [Example 124, 5-Cyclopentyl-1-(5-ethynyl-2-{[4-(4-methylpiperazin-1-yl)phenyl]amino}pyrido[2,3-d]pyrimidin-7-yl)imidazolidin-2-one], for which the IC50 in experiment [1] is 20 to 100 nM; in experiment [2], under 1 µM; in experiment [3], 500 to 1000 nM; in experiment [4], under 500 nM; in experiment [5], over 3 µM.
